Source: US4565816A, “Piperazine derivatives and pharmaceutical composition containing them” (Sandoz Ltd., priority 1982, dated 1986)

Columns and labels:
[1] = test system: spontaneously beating guinea-pig atria; assay: decrease of heart rate of spontaneously beating guinea-pig atria in vitro; conditions: Cavia porcellus, read-out: EC25 (concentration decreasing the rate of the spontaneously beating atria by 25%)
Procedure: For example, in guinea-pig atria in vitro [method of R. P. Hof and G. Scholtysik, J. of Cardiovascular Pharmacology 5, 176-183 (1983)] a decrease of the heart rate of spontaneously beating atria is observed at a bath concentration of from about 1 μM to about 100 μM. The concentration decreasing the rate of the spontaneously beating atria by 25% (EC25 values) for some compounds of the present invention and the standard Alinidin are given in the following Table: […]

mice = assay: inhibition of locomotion in mice; type: in vivo, mouse (male, OF-1); conditions: Mus musculus, po, 1 hour after administration, minimum dose at which significant inhibition was observed, read-out: Locomotor inhibition EDmin
Procedure: In particular, the compounds of formulae I and VII are useful as neuroleptic agents in the treatment of e.g. psychotic disorders such as schizophrenia, as indicated in standard tests, e.g. by an inhibition of locomotion in mice. In this test groups of 3 male mice (18-24 g, OF-1, Sandoz Basle) received 3.2, 10, 32, 100 and […]. of the test drug. 1 hour after drug administration the mice were observed individually and their locomotion compared with that of control. The locomotion of the animals was observed and the EDmin (the minimum dose at which significant inhibition was observed) determined.

[2] = molecular target: T1, ^3 H-Spiperone binding sites (Bos taurus, UniProt P20288); assay: ^3 H-Spiperone binding (calf brain striatal tissue); conditions: for IC50: calf brain striatal membranes, 0.1 nM ^3 H-Spiperone, 5×10^-7 M Cinanserin, 40 minutes at room temperature, read-out: Receptor binding IC50 ^3 H-Spiperone; for effect in the ^3 H-Spiperone binding test compared with Clozapine: in words, relative to Clozapine
T1 construct: fresh calf brain striatal tissue was homogenized; from tissue; host or cells: calf brain striatum, membranes
Procedure: The compounds of formulae I and VII bind further on ^3 H-Spiperone binding sites in the brain [modified method of J. Leysen et al., Biochem. Pharmac. […] The test was performed as follows: fresh calf brain striatal tissue was homogenized in the 25 fold volume of Tris buffer (pH 7.4, 50 mM, 120 mM sodium chloride) and centrifuged. The pellets were suspended in the 22 fold volume of Tris buffer, incubated for 15 minutes at 37° C. and centrifuged. The pellets were suspended in the 300 fold volume of Tris buffer. […] After incubation for 40 minutes at room temperature, the assay mixtures were raidly filtered through Whatman GF/B filter, the filters washed twice with 5 ml of ice cold Tris buffer and scintillation-counted.

α1-receptors = assay: ^3 H-Prazosin binding assay for α1-receptors (calf brain cortex); conditions: calf brain cortex membranes, 0.3 nM ^3 H-Prazosin, pH 7.7, 40 min room temperature; read-out: IC50, inhibition of specific ^3 H-Prazosin binding
Procedure: The compounds of formulae I and VII are furthermore useful as anti-hypertensive agents, as indicated in standard tests, for example in the ^3 H-Prazosin binding assay for α1 -receptors [modified method of Greengrass P., et al., Eur. J. Pharmac. 55, 323-326 (1979)]. The test was performed as follows:
Fresh calf brain cortex tissue is homogenized in a 20 fold volume of Tris-HCl buffer (50 mM, pH 7.7), using a Polytron PT 20, and centrifuged at 30'000 xg for 25 min. The pellets are resuspended in a 13 fold volume of the same buffer, incubated for 15 min at 37° C., and recentrifuged at 50'000 xg for 11 min. The pellets of this centrifugation are frozen at -20° C. and resuspended in a 60 fold volume of the same buffer as above before use for the binding experiment. The composition of the assay mixtures (total volume=2 ml) is as follows: 50 mM Tris-HCl pH 7.7, membranes corresponding to 30 mg of original tissue weight, and 0.3 nM ^3 H-Prazosin. The assays for the definition of nonspecific binding additionally contain phentolamine at a concentration of 10 μM. To assess the potency of drugs in inhibiting specific ^3 H-Prazosin binding (difference between total and nonspecific binding), the test compounds are added to give 5 to 9 different concentrations between 1 nM and 10 μM, each in duplicate. After incubation for 40 min at room temperature, the assay mixtures are rapidly filtered through Whatman GF/B filters and washed twice with 5 ml of ice cold Tris buffer. The radioactivity of the filters is estimated by scintillation counting.

female normotonic rats = assay: blood pressure / heart rate in anaesthetized normotonic rats; type: in vivo, rat (female, Sprague-Dawley); conditions: Rattus norvegicus, iv; urethane-anaesthetized rats, cumulative i.v. doses 3 to 1443 μg/kg, interpolated; read-out: ED75 (dose required to reduce the blood pressure on the heart rate to 75% of pretreatment values)
Procedure: In another test female normotonic rats (200-350 g, Sprague-Dawley, Suddeutsche Tierfarm, Tuttlingen, FRG) were anaesthetized with urethane (1.5-1.75 g/kg i.p. in 2 portions) and a tracheal cannula was inserted. Blood pressure and heart rate were recorded from the carotid artery by conventional methods. Test drug were administered by the jugular or the femoral vein. Body temperature was maintained at 37° C. by means of a temperature regulator (Alfos MK-4) triggered by a thermistor on the animal. After adaptation, increasing doses of the test drug were injected i.v. to give the following cumulative doses: 3, 13, 43, 143, […] and 1443 μg/kg. ED 75% is the dose required to reduce the blood pressure on the heart rate to 75% of pretreatment values. It was obtained through interpolation. The ED75 of the Example 4 compound is 6 μg, of Example 5s compound 3 μg, of Example 8 g 4 μg and of Guanfacine 57 μg.

T1 sequence (P20288 whole entry): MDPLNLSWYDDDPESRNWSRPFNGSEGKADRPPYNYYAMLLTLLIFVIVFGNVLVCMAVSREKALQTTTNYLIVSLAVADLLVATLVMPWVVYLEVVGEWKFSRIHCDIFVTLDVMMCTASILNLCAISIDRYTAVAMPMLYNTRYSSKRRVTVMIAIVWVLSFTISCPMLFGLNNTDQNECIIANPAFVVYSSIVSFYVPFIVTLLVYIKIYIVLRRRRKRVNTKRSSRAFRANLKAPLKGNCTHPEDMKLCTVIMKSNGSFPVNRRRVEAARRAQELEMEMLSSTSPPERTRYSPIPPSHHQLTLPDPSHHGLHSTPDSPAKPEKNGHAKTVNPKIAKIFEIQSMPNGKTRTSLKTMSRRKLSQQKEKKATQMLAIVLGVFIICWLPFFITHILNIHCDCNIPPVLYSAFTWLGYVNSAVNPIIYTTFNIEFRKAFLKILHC

Row | Compound | IC50 [2] [nM] | minimal effective dose (mice) [mg/kg] | also measured
1 | C=CCN(C1=NCCN1)c1c(Cl)cccc1Cl [Alinidin, reference compound] | – | – | EC25 [1]: 6500 nM
2 | CN1CCN(C2=Nc3cc(Cl)ccc3Nc3ccccc32)CC1 [Clozapine, reference compound] | – | 3.2 | –
3 | O=C(CCCN1CCN(c2ccc3[nH]cnc3n2)CC1)c1ccc(F)cc1 [Example 1, 1-(4-Fluorophenyl)-4-[4-(1H-imidazo[4,5-b]pyridin-5-yl)-1-piperazinyl]-1-butanone] | 306 | 1 | effect in the ^3 H-Spiperone binding test compared with Clozapine [2]: stronger effects; EC25 [1]: 7800 nM
4 | Cc1nc2ccc(N3CCN(CCCC(=O)c4ccc(F)cc4)CC3)nc2n1C [Example 3d] | – | – | IC50 (α1-receptors): 2.2 nM
5 | CC(=O)Nc1cnc(N2CCN(CCCC(=O)c3ccc(F)cc3)CC2)cc1NC(C)=O [Example 4, 4-[4-(4,5-Diacetylamino-2-pyridinyl)-1-piperazinyl]-1-(4-fluorophenyl)-1-butanone] | – | – | IC50 (α1-receptors): < 1 nM; ED75 (female normotonic rats): 0.006 mg/kg
6 | CC(=O)Nc1cnc(N2CCN(CCCOc3ccc(F)cc3)CC2)cc1NC(C)=O [Example 5s] | – | – | ED75 (female normotonic rats): 0.003 mg/kg
7 | Cc1nc2ccc(N3CCN(CCCC(=O)c4ccc(F)cc4)CC3)nc2nc1C [Example 7, 4-[4-(2,3-Dimethyl-pyrido[2,3-b]pyrazin-6-yl)-1-piperazinyl]-1-(4-fluorophenyl)-1-butanone] | 205 | 10 | –
8 | O=C(CCCN1CCN(c2cc3nccnc3cn2)CC1)c1ccc(F)cc1 [Example 8d] | – | – | EC25 [1]: 4000 nM
9 | Fc1ccc(OCCCN2CCN(c3cc4nccnc4cn3)CC2)cc1 [Example 8g] | – | – | ED75 (female normotonic rats): 0.004 mg/kg; EC25 [1]: 2150 nM
10 | N=C(N)NC(=O)Cc1c(Cl)cccc1Cl [Guanfacine, reference compound] | – | – | IC50 (α1-receptors): 3700 nM; ED75 (female normotonic rats): 0.057 mg/kg

The next lines start with results.

Row | IC50 [2] [nM] | Compound | minimal effective dose (mice) [mg/kg] | also measured
11 | 246 | CCc1nc2ccc(N3CCN(CCCC(=O)c4ccc(F)cc4)CC3)nc2[nH]1 [Example 3i] | 3.2 | effect in the ^3 H-Spiperone binding test compared with Clozapine [2]: stronger effects
12 | 441 | O=C(CCCN1CCN(c2cc3[nH]cnc3cn2)CC1)c1ccc(F)cc1 [Example 3r] | ≤ 3.2 | –
13 | 4600 | CC(=O)Nc1ccc(N2CCN(CCCC(=O)c3ccc(F)cc3)CC2)nc1NC(C)=O [Example 5c] | 1 | –
14 | 121 | Cc1nc2cnc(N3CCN(CCCC(=O)c4ccc(F)cc4)CC3)cc2nc1C [Example 8c] | 10 | –
